Data as given in ChEMBL document CHEMBL1201862, “PubChem BioAssay data set” (2004).
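Following 48 hours of exposure in 96-well plates, responses at five concentrations were used to interpolate endpoints linearly. GI50 marks 50% less growth.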 Active and inactive are the calls of the source. No stated cut-off is given here; in the data, active = GI50 up to about 1.1 µM and inactive = higher.

Tests used:
Experiment in all cases: NCI anticancer screen, dose series, 48 h
786-0 = tested on: 786-0
A549 = tested on: A549
HL-60 = tested on: HL-60
HT-29 = tested on: HT-29
K562 = tested on: K562
KM12 = tested on: KM12
LOX IMVI = tested on: LOX IMVI
MDA-N = tested on: MDA-N
NCI-H226 = tested on: NCI-H226
NCI-H460 = tested on: NCI-H460
PC-3 = tested on: PC-3
RPMI-8226 = tested on: RPMI-8226
SF-295 = tested on: SF-295
SK-MEL-5 = tested on: SK-MEL-5
SK-OV-3 = tested on: SK-OV-3
SN12C = tested on: SN12C
SW-620 = tested on: SW-620
UACC-257 = tested on: UACC-257
UACC-62 = tested on: UACC-62
UO-31 = tested on: UO-31

Compound | GI50 (786-0) | GI50 (A549) | GI50 (HL-60) | GI50 (HT-29) | GI50 (K562) | GI50 (KM12) | GI50 (LOX IMVI) | GI50 (MDA-N) | GI50 (NCI-H226) | GI50 (NCI-H460) | GI50 (PC-3) | GI50 (RPMI-8226) | GI50 (SF-295) | GI50 (SK-MEL-5) | GI50 (SK-OV-3) | GI50 (SN12C) | GI50 (SW-620) | GI50 (UACC-257) | GI50 (UACC-62) | GI50 (UO-31)
Cc1nc2ccccc2c(=O)n1NC(=O)c1ccc([N+](=O)[O-])cc1 | > 100 µM (inactive) | > 100 µM (inactive) | > 100 µM (inactive) | > 100 µM (inactive) | > 100 µM (inactive) | > 100 µM (inactive) | > 100 µM (inactive) | > 100 µM (inactive) | > 100 µM (inactive) | > 100 µM (inactive) | > 100 µM (inactive) | > 100 µM (inactive) | > 100 µM (inactive) | > 100 µM (inactive) | > 100 µM (inactive) | > 100 µM (inactive) | > 100 µM (inactive) | > 100 µM (inactive) | > 100 µM (inactive) | > 100 µM (inactive)
[N-]=[N+]=Nc1ccccc1C(=O)N1C(=O)c2ccccc2C(=O)N(C(=O)c2ccccc2N=[N+]=[N-])c2ccccc21 | 28.4 µM (inactive) | 37.1 µM (inactive) | > 10 µM (inactive) | 98.6 µM (inactive) | 30.3 µM (inactive) | 57.8 µM (inactive) | 19.8 µM (inactive) | 59.3 µM (inactive) | > 100 µM (inactive) | 66.7 µM (inactive) | 21.4 µM (inactive) | 36.8 µM (inactive) | 41.9 µM (inactive) | 47.2 µM (inactive) | 31.2 µM (inactive) | 82.8 µM (inactive) | 32.1 µM (inactive) | 82.4 µM (inactive) | 34.4 µM (inactive) | > 100 µM (inactive)
[N-]=[N+]=CC(=O)OC1Cc2ccccc2C1 | > 81.7 µM (inactive) | 84.3 µM (inactive) | > 100 µM (inactive) | > 100 µM (inactive) | > 100 µM (inactive) | > 100 µM (inactive) | > 100 µM (inactive) | > 100 µM (inactive) | > 93.3 µM (inactive) | > 100 µM (inactive) | > 95.7 µM (inactive) | > 100 µM (inactive) | 61.9 µM (inactive) | > 56.6 µM (inactive) | > 100 µM (inactive) | > 39.4 µM (inactive) | > 100 µM (inactive) | > 100 µM (inactive) | > 100 µM (inactive) | 16.6 µM (inactive)
C=C(Cl)[C@](Cl)(CBr)CC[C@@H](Br)C(C)(C)Cl [HALOMON] | 0.147 µM (active) | 2.12 µM (inactive) | 0.421 µM (active) | 0.783 µM (active) | 0.916 µM (active) | 0.927 µM (active) | 17.7 µM (inactive) | 0.959 µM (active) | 17 µM (inactive) | 0.955 µM (active) | 0.319 µM (active) | 0.0607 µM (active) | 1.02 µM (active) | 12.3 µM (inactive) | 9.57 µM (inactive) | 3.23 µM (inactive) | 2.07 µM (inactive) | 1.4 µM (inactive) | 3.19 µM (inactive) | 0.959 µM (active)
COc1cccc(O)c1-c1cc(=O)c2c(O)c(OC)c(OC)c(OC)c2o1 [SKULLCAPFLAVONE II] | 42.6 µM (inactive) | 29 µM (inactive) | 20.4 µM (inactive) | 6.5 µM (inactive) | 14.5 µM (inactive) | 12 µM (inactive) | 30.2 µM (inactive) | 12.9 µM (inactive) | 47.2 µM (inactive) | 19.1 µM (inactive) | 15.3 µM (inactive) | 18.7 µM (inactive) | 21.1 µM (inactive) | 19 µM (inactive) | 28.4 µM (inactive) | 28 µM (inactive) | 31.8 µM (inactive) | 27 µM (inactive) | 14.7 µM (inactive) | 25.2 µM (inactive)
